Measured values: patent EP1914235A1, “CHIRAL TETRA-HYDRO BETA-CARBOLINE DERIVATIVES AND APPLICATIONS THEREOF AS ANTIPARASITIC COMPOUNDS” (Université de Lille 2 Droit et Santé, priority 2006, dated 2008)
≈ marks a conversion by molar mass, not a printed value.

What was measured:
[1] = test system: Plasmodium berghei ANKA strain; test: In vivo antiparasitic activity in infected mice (4-day dosing, parasitemia on day 5); details: mice infected with P. berghei ANKA; for Activity at the dose 50 mg/kg (%): 50 mg/kg every day for 4 days
Description: Female mice (TFW or BALB/c, specific pathogen free), 18-20 g, or
Infection: Blood was taken from donor mice and diluted in RPMI-1640 medium to a parasitemia of 1% (the equivalent of 1x10^7 infected erythrocytes/ml) whilst kept on ice. An inoculum of 0.2 ml was administered to each mouse by the intravenous route. At 2-4 hours post-inoculation dosing commences.
Evaluation endpoint: On day 5 blood smears of all animals (2 slides/mouse) were prepared, fixed with methanol and stained with 10% Giemsa's stain. Parasitemia was determined microscopically by counting 1000 red blood cells under oil immersion at 1000x magnification.
Each of the tested compounds of formula (I) according to the invention was prepared as a stock solution of 5 mg/ml in 10% DMSO/PBS. Insoluble compounds of formula (I) were milled with stainless steel balls for up to 24 hours to reduce particle size. Fresh dilutions were prepared each day. The route of administration of tested compounds is intra peritoneal (i.p.).
Compounds were formulated at 10 mg/kg or at 50 mg/kg in a standard suspension vehicle (0.5% carboxymethylcellulose, 0.5% benzyl alcohol, 0.4% Tween® 80 in 0.9% NaCl) for both oral and i.p. administration.
Dosing was over a 4 day period as above, and evaluation was also as above.

P. falciparum K1 strain = test: [3H]hypoxanthine drug sensitivity assay, K1 strain; assay type: cell-based; details: Plasmodium falciparum, K1; read-out: IC50 K1
Description: (§1) The cultures are naturally asynchronous (65-75% ring stage) and are maintained in continuous log phase growth in RPMI-1640 medium (as developed by Moore et. al. at Roswell Park Memorial Institute, sold by Sigma Aldrich) supplemented with 5% washed human A+ erythrocytes, 25 mM Hepes, […] NaHCO3, and AlbuMAXII (lipid-rich bovine serum albumin) sold GIBCO, Grand Island, NY (CM). All cultures and assays were conducted at 37°C under an atmosphere of 5% CO2 and 5% O2, with a balance of N2.
(§2) The compounds were further diluted to the appropriate concentration using complete medium RPMI-1640 supplemented with 15nM cold hypoxanthine and AlbuMAXII.
(§3) Assays were performed in sterile 96-well microtitre plates; each plate contained 100 µl of parasite culture (0.5% parasitemia, 2.5% hematocrit). Each compound was tested in triplicate and parasite growth compared to control and blank (uninfected erythrocytes) wells. After 24h of incubation at 37°C, […] of [^3H]hypoxanthine was added to each well. Cultures were incubated for a further 24 h before they were harvested onto glass-fiber filter mats. The radioactivity was counted using a Wallac Microbeta® 1450 scintillation counter. The results were recorded as counts per minute (CPM) per well at each compound concentration, control and blank wells. Percentage inhibition was calculated from comparison to blank and control wells, and IC50 values calculated using Microsoft XLFit ® line fitting software (IDBS, UK).
(§4) Both the 3D7 clone and the K1 line were used. The compounds were diluted three-fold over at 12 different concentrations with an appropriate starting concentration based on the preliminary screen. The IC50 was determined by a sigmoidal dose response analysis using Microsoft XLFit™ (IDBS, UK).

[2] = test system: P. falciparum 3D7 clone of NF54; test: [3H]hypoxanthine drug sensitivity assay, 3D7 clone; assay type: cell-based; details: Plasmodium falciparum; P. falciparum 3D7, sensitive to all anti-malarials; 48 h, [3H]hypoxanthine uptake; read-out: IC50 3D7(µg/ml)
Description: as §1, §2
as §3, with “The results were recorded as counts per minute (CPM) per well at each compound concentration, control and blank wells.” left out
The preliminary screen used the 3D7 strain. The compounds were tested at 6 concentrations (30, 10, 3, 1, 0.3, and 0.1 µg/ml).
as §4

IC50 (P. falciparum K1 strain) | IC50 [2] | Compound | Activity at the dose 50 mg/kg (%) [1] | Activity at the dose 10 mg/kg (%) ([1]; 10 mg/kg every day for 4 days)
0.2 µg/mL (≈ 0.373 µM) | 0.08 µg/mL (≈ 0.149 µM) | O=C1[C@H]2Cc3c([nH]c4ccccc34)[C@@H](c3ccc4c(c3)OCO4)N2C(=O)CN1[C@@H]1CCN(Cc2ccccn2)C1 [Compound 27, (6R,12aR)-6-Benzo[1,3]dioxol-5-yl-2-((R)-1-pyridin-2-ylmethyl-pyrrolidin-3-yl)-2,3,6,7,12,12a-hexahydro-pyrazino [1',2':1,6]pyrido[3,4-b]indole-1,4-dione] | 10% | –
0.07 µg/mL (≈ 0.13 µM) | 0.09 µg/mL (≈ 0.167 µM) | Cn1ccnc1CN1CC[C@@H](N2CC(=O)N3[C@H](c4ccc5c(c4)OCO5)c4[nH]c5ccccc5c4C[C@@H]3C2=O)C1 [Compound 28, (6R,12aR)-6-Benzo[1,3]dioxol-5-yl-2-[(R)-1-(1-methyl-1H-imidazol-2-ylmethyl)-pyrrolidin-3-yl]-2,3,6,7,12,12a-hexahydro-pyrazino[1',2':1,6]pyrido[3,4-b]indole-1,4-dione] | 32% | 24%
0.09 µg/mL (≈ 0.167 µM) | 0.5 µg/mL (≈ 0.928 µM) | Cn1ccnc1CN1CC[C@@H](N2CC(=O)N3[C@@H](c4ccc5c(c4)OCO5)c4[nH]c5ccccc5c4C[C@@H]3C2=O)C1 [Compound 29, (6S,12aR)-6-Benzo[1,3]dioxol-5-yl-2-[(R)-1-(1-methyl-1H-imidazol-2-ylmethyl)-pyrrolidin-3-yl]-2,3,6,7,12,12a-hexahydro-pyrazino[1',2':1,6]pyrido[3,4-b]indole-1,4-dione] | 19% | –
0.11 µg/mL (≈ 0.209 µM) | 0.07 µg/mL (≈ 0.133 µM) | O=C1[C@H]2Cc3c([nH]c4ccccc34)[C@@H](c3ccc(Cl)nc3)N2C(=O)CN1[C@@H]1CCN(Cc2ccccc2)C1 [Compound 84c, (6R,12aR)-2-((R)-1-Benzyl-pyrrolidin-3-yl)-6-(6-chloro-pyridin-3-yl)-2,3,6,7,12,12a-hexahydro-pyrazino[1',2':1,6] pyrido[3,4-b]indole-1,4-dione] | 9.1% | –
